Laboratory results taken from patent US10577371B2, “Small molecule histone methyltransferase SUV39H1 inhibitor and uses thereof” (Augusta University Research Institute, Inc., priority 2017, dated 2020).

Columns and labels:
AB1-HA tumor model = settings: CTX treatment at Day 9; cited from earlier work
[1] = background statement; cited from earlier work
[2] = tested on: CD8+ CTLs from CT26 tumor tissues; assay: H3K9me3 ChIP and qPCR in tumor-infiltrating CD8+ CTLs of CT26 tumor bearing mice; format: in vivo; settings: CD8+ CTLs from CT26 tumors, F5446-treated mice
Protocol: CD8^+ CTLs were isolated from tumor tissues of the control and the F5446-treated groups of CT26 tumor bearing mice (from Example 13). ChIP analysis of H3K9me3 level in the promoter regions of GZMB, PRF1, FASLG and IFNG was performed. Further a qPCR analysis was performed to determine the expression levels of all four promoter regions.

[3] = tested on: CD3+ T cells from spleens of C57BL/6 mice; assay: H3K9me3 ChIP and effector expression in activated CD3+ T cells; format: cell-based; settings: activated mouse CD3+ T cells
Protocol: CD3^+ T cells were purified from spleens of C57BL/6 mice. The cells were stimulated in anti-CD3/CD28-coated plates for 2 days in the absence or presence of F5446 (50 nM). The resting, stimulated and treated T cells were then analyzed by ChIP (Chromatin Immunoprecipitation) with anti-H3K9me3 antibody and gene-specific PCR primers.

[4] = Toxicity of F5446 in mice: survival and serum liver enzyme profile; format: in vivo
Protocol: F5446 was injected into mice at a dose of 10 mg/kg body weight every 2 days for 6 days. Mouse survival was recorded. Serum was collected from the mice and analyzed for liver enzyme profiles at the University of Georgia Veterinary Diagnostic Laboratories.

SW620 and LS411N cells [5] = assay: Sensitisation of colon carcinoma cells to FasL-induced apoptosis; format: cell-based, human; settings: F5446 at sublethal dose plus FasL, 3 days
Protocol: SW620 and LS411N cells were cultured in the presence of F5446 and FasL, either alone or in combination, for 3 days. Cells were stained with PI and Annexin V and analyzed for apoptosis.
Apoptotic cell death was calculated as the difference between the percentage of PI^+ Annexin V^+ cells in the presence of F5446, FasL, or both and the percentage of PI^+ Annexin V+ cells in the absence of F5446 or FasL.

[6] = tested on: Fas in SW620 and LS411N cells; assay: Fas protein level on tumor cell surface by flow cytometry; format: cell-based, human; settings: 3 days, 25 and 250 nM
Protocol: SW620 and LS411N cells were cultured in the presence of F5446 for 3 days. Fas protein levels were analyzed by flow cytometry (FIG. 12A-12B).

SW620 and LS411N cells [7] = assay: Apoptosis of human colon carcinoma cells, PI/annexin V flow cytometry; format: cell-based; settings: 0.01, 0.05, 0.25 and 1 μM for 2 days
Protocol: SW620 and LS411N cells were cultured in the presence of F5446 at doses of 0.01, 0.05, 0.25, and 1 μM for 2 days. Cells were stained with propidium iodide (“PI”) and annexin V and analyzed for apoptosis by flow cytometry.
Apoptotic cell death was calculated as the difference between the percentage of PI^+ Annexin V^+ cells in the presence of F5446 and the percentage of PI^+ Annexin V^+ cells in the absence of F5446.

[8] = tested on: MC38 and CT26 colon carcinoma tumors; assay: Colon carcinoma growth in vivo, MC38 in C57BL/6 and CT26 in BALB/c mice; settings: F5446 10 mg/kg
Protocol: Two different tumor cells were injected into two different strains of mice. MC38 cells (1.5×10^5 cells/mouse) were injected to thirty C57BL/6 mice subcutaneously. CT26 cells (2×10^5 cells/mouse) were injected to thirty BALB/c mice subcutaneously. Twenty mice from each strain with relatively similar sizes of tumors were randomized into four groups at day 8 after tumor cell injection. The four groups of tumor-bearing mice were treated with IgG/solvent (control), […] (10 mg/kg), anti-PD-1 mAb ([…]), and […]+anti-PD-1 mAb, respectively, every two days for 14 days.

[9] = target: T1, recombinant human SUV39H1 (Homo sapiens, UniProt O43463); assay: HMTase EC50 assay with recombinant human SUV39H1 (Reaction Biology Corp.); format: biochemical; settings: 10-dose, 3-fold serial dilutions; S-(methyl-3H) Adenosyl-L-Methionine; H3 peptide (N1-21); read-out: EC50 against recombinant human SUV39H1 in vitro
T1 construct: purchased Reaction Biology Corp. (Malvern Pa.)
T1 sequence (O43463 1-412): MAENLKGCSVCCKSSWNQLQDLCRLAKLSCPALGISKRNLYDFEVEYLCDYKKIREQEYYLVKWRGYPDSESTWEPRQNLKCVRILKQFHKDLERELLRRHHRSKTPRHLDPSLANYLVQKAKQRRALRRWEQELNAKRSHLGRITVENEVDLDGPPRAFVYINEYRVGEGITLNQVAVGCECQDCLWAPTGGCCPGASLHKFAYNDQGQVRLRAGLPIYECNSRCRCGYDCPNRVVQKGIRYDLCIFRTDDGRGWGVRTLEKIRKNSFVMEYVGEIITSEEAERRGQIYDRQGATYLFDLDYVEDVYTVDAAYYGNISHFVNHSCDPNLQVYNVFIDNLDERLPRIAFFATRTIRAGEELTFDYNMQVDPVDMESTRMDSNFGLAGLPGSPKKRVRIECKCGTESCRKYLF
Protocol: F5446 was sent to Reaction Biology Corp. (Malvern Pa.) to validate its inhibitory activity and to determine its EC50 for SUV39H1. F5446 was assayed in a 10-dose EC50 mode with 3-fold serial dilutions using recombinant human SUV39H1 protein as the methyltransferase, S-(methyl-3H) Adenosyl-L-Methionine as the substrate, and H3 peptide (N1-21) as the template in the presence of indicated doses of F5446. The EC50 was calculated with Prizm Program.

[10] = tested on: H3K9me3 at the FAS promoter region in SW620 and LS411N cells; assay: ChIP of H3K9me3 at the FAS promoter region in colon carcinoma cells; format: cell-based, human; settings: 25 and 250 nM for 2 days
Protocol: SW620 and LS411N cells were treated with F5446 at 25, and 250 nM for 2 days and analyzed by ChIP using H3K9me3-specific antibody. The H3K9me3 antibody-immunoprecipitated DNA was amplified by PCR with FAS promoter DNA-specific primers and normalized to input genomic DNA.

[11] = mouse serum, 10 mg/kg every 2 days for 6 days
[12] = MC38/C57BL/6 and CT26/BALB/c, anti-PD-1 mAb 200 mg/mouse, every two days for 14 days

For `O=P1(N(CCCl)CCCl)NCCCO1` (stereo not shown) [CTX, Cyclophosphamide], the cure rate (AB1-HA tumor model) is given as 75%.

In the case of `CN1C(=O)[C@]23SS[C@@]1(C)C(=O)N2[C@H]1Nc2ccccc2[C@@]1([C@@]12c4ccccc4N[C@@H]1N1C(=O)[C@@]4(C)SS[C@]1(C(=O)N4C)[C@H]2O)[C@@H]3O` [verticillin A], the toxicity in vivo [1] is listed as “toxic in vivo”.

For `COC(=O)c1cc2c(n1S(=O)(=O)c1ccc(Cl)cc1)C(=O)C(=O)c1[nH]cc(C(=O)OCc3ccccc3)c1-2` [F5446, 1-Benzyl 7-methyl 6-(4-chlorobenzenesulfonyl)-4,5-dioxo-3H,4H,5H,6H-pyrrolo[3,2-e]indole-1,7-dicarboxylate], the “expression levels of granzymeB, perforin, FasL and IFNγ in tumor-infiltrating CTLs (qPCR)” value [2] was “significantly increased”, the “H3K9me3 levels in the promoter regions of GZMB, PRF1, FASLG and IFNG in tumor-infiltrating CTLs” value ([2]; ChIP) was “decreased H3K9me3 levels” and the “H3K9me3 levels in the promoter regions of GZMB, PRF1, FASLG and IFNG” value ([3]; F5446 50 nM, 2 days, ChIP) was “reduced H3K9me3 levels”. The “expression of GZMB, PRF1, FASLG and IFNG” value ([3]; increasing doses of F5446) was “increased expression of all four effector genes in a dose-dependent manner”, the survival rate ([4]; mice, 10 mg/kg body weight every 2 days for 6 days) was 100% and the “liver enzyme profile, overall finding” value ([4]; mice, 10 mg/kg every 2 days for 6 days) was “did not cause toxic levels of liver enzymes in vivo”. For the same molecule, the ALP [4, 11] was 60.3 U/L, the ALT [4, 11] was 71.3 U/L and the AST [4, 11] was 444.3 U/L. The Albumin [4, 11] was 3.3 g/dL, the Cholesterol [4, 11] was 119 mg/dL and the GGT [4, 11] was less than 3 U/L. The “Total Bilirubin” value [4, 11] was 0.1 mg/dL, the Total protein [4, 11] was 5.7 g/dL and the “sensitivity to FasL-induced apoptosis” value (SW620 and LS411N cells [5]) was “significantly increased human colon carcinoma cells to FasL-induced apoptosis”. The “tumor cell surface Fas expression (MFI)” value [6] was “up-regulated tumor cell surface Fas expression”, the apoptotic cell death (SW620 and LS411N cells [7]) was “induced human colon carcinoma cell death in a dose-dependent manner” and the “established tumor growth over time (tumor volume)” value [8, 12] was “suppressed the established tumor growth in a time-dependent manner”. The “tumor growth as measured by tumor size and tumor weight” value [8, 12] was “significantly reduced tumor growth”, the “expression levels of granzymeB, perforin, FasL and IFNγ in tumor tissues (qPCR)” value ([8]; tumor tissues of C57BL/6 and BALB/c mice) was “significantly increased” and the EC50 [9] was 496 nM. The “H3K9me3 at the FAS promoter region” value [10] was “inhibits H3K9me3 at the FAS promoter region”.

For `CN1C(=O)[C@@]23C[C@]4([C@]56C[C@@]78SS[C@@](CO)(C(=O)N7[C@H]5Nc5ccccc56)N(C)C8=O)c5ccccc5N[C@@H]4N2C(=O)[C@]1(CO)SS3` [chaetocin], the toxicity in vivo [1] is given as “toxic in vivo”.
